According to the NIST ThermoML archive (doi:10.1016/j.jct.2014.12.023):
± gives the expanded uncertainty stated by the source.

Experiment: activity coefficient (dimensionless); of the first substance listed, at infinite dilution; xn = mol fraction of the nth substance listed
Conditions: 87.4 kPa, Liquid, Chromatography, x1 = 0

SMILES | activity coefficient (313 K) | activity coefficient (323 K) | activity coefficient (333 K) | activity coefficient (343 K)
ClCCCl [1,2-dichloroethane] + O=S(=O)([N-]S(=O)(=O)C(F)(F)F)C(F)(F)F.O=S(=O)([N-]S(=O)(=O)C(F)(F)F)C(F)(F)F.c1ccc2cc(C[N+]3(CCCCCCCCC[N+]4(Cc5ccc6ccccc6c5)CCCC4)CCCC3)ccc2c1 | 0.568 ± 0.032 | 0.569 ± 0.032 | 0.596 ± 0.033 | 0.613 ± 0.033
c1ccccc1 [benzene] + O=S(=O)([N-]S(=O)(=O)C(F)(F)F)C(F)(F)F.O=S(=O)([N-]S(=O)(=O)C(F)(F)F)C(F)(F)F.c1ccc2cc(C[N+]3(CCCCCCCCC[N+]4(Cc5ccc6ccccc6c5)CCCC4)CCCC3)ccc2c1 | 0.515 ± 0.031 | 0.517 ± 0.031 | 0.52 ± 0.031 | 0.574 ± 0.034
O=C1CCCC1 [cyclopentanone] + O=S(=O)([N-]S(=O)(=O)C(F)(F)F)C(F)(F)F.O=S(=O)([N-]S(=O)(=O)C(F)(F)F)C(F)(F)F.c1ccc2cc(C[N+]3(CCCCCCCCC[N+]4(Cc5ccc6ccccc6c5)CCCC4)CCCC3)ccc2c1 | 0.318 ± 0.028 | 0.324 ± 0.028 | 0.33 ± 0.028 | 0.347 ± 0.028
CC#N [acetonitrile] + O=S(=O)([N-]S(=O)(=O)C(F)(F)F)C(F)(F)F.O=S(=O)([N-]S(=O)(=O)C(F)(F)F)C(F)(F)F.c1ccc2cc(C[N+]3(CCCCCCCCC[N+]4(Cc5ccc6ccccc6c5)CCCC4)CCCC3)ccc2c1 | 0.339 ± 0.028 | 0.341 ± 0.028 | 0.349 ± 0.028 | 0.372 ± 0.029
CO [methanol] + O=S(=O)([N-]S(=O)(=O)C(F)(F)F)C(F)(F)F.O=S(=O)([N-]S(=O)(=O)C(F)(F)F)C(F)(F)F.c1ccc2cc(C[N+]3(CCCCCCCCC[N+]4(Cc5ccc6ccccc6c5)CCCC4)CCCC3)ccc2c1 | 0.821 ± 0.038 | – | – | –
CCCO [propan-1-ol] + O=S(=O)([N-]S(=O)(=O)C(F)(F)F)C(F)(F)F.O=S(=O)([N-]S(=O)(=O)C(F)(F)F)C(F)(F)F.c1ccc2cc(C[N+]3(CCCCCCCCC[N+]4(Cc5ccc6ccccc6c5)CCCC4)CCCC3)ccc2c1 | 1.33 ± 0.083 | 1.07 ± 0.057 | 1.02 ± 0.045 | 1.01 ± 0.044
C1CCCCC1 [cyclohexane] + O=S(=O)([N-]S(=O)(=O)C(F)(F)F)C(F)(F)F.O=S(=O)([N-]S(=O)(=O)C(F)(F)F)C(F)(F)F.c1ccc2cc(C[N+]3(CCCCCCCCC[N+]4(Cc5ccc6ccccc6c5)CCCC4)CCCC3)ccc2c1 | 3.83 ± 0.22 | 3.35 ± 0.19 | 2.98 ± 0.17 | 2.49 ± 0.16
CCCCCC [hexane] + O=S(=O)([N-]S(=O)(=O)C(F)(F)F)C(F)(F)F.O=S(=O)([N-]S(=O)(=O)C(F)(F)F)C(F)(F)F.c1ccc2cc(C[N+]3(CCCCCCCCC[N+]4(Cc5ccc6ccccc6c5)CCCC4)CCCC3)ccc2c1 | 4.73 ± 0.24 | 3.9 ± 0.2 | – | –
CCO [ethanol] + O=S(=O)([N-]S(=O)(=O)C(F)(F)F)C(F)(F)F.O=S(=O)([N-]S(=O)(=O)C(F)(F)F)C(F)(F)F.c1ccc2cc(C[N+]3(CCCCCCCCC[N+]4(Cc5ccc6ccccc6c5)CCCC4)CCCC3)ccc2c1 | 1 ± 0.044 | 1.01 ± 0.045 | 0.937 ± 0.043 | 0.891 ± 0.041
Cc1ccc(C)cc1 [1,4-dimethylbenzene] + O=S(=O)([N-]S(=O)(=O)C(F)(F)F)C(F)(F)F.O=S(=O)([N-]S(=O)(=O)C(F)(F)F)C(F)(F)F.c1ccc2cc(C[N+]3(CCCCCCCCC[N+]4(Cc5ccc6ccccc6c5)CCCC4)CCCC3)ccc2c1 | 0.881 ± 0.04 | 0.9 ± 0.041 | 0.929 ± 0.042 | 0.992 ± 0.045
CCCCCCCC [octane] + O=S(=O)([N-]S(=O)(=O)C(F)(F)F)C(F)(F)F.O=S(=O)([N-]S(=O)(=O)C(F)(F)F)C(F)(F)F.c1ccc2cc(C[N+]3(CCCCCCCCC[N+]4(Cc5ccc6ccccc6c5)CCCC4)CCCC3)ccc2c1 | 8.51 ± 0.48 | 7.57 ± 0.41 | 7.4 ± 0.39 | 6.71 ± 0.37
C1COCCO1 [1,4-dioxane] + O=S(=O)([N-]S(=O)(=O)C(F)(F)F)C(F)(F)F.O=S(=O)([N-]S(=O)(=O)C(F)(F)F)C(F)(F)F.c1ccc2cc(C[N+]3(CCCCCCCCC[N+]4(Cc5ccc6ccccc6c5)CCCC4)CCCC3)ccc2c1 | 0.382 ± 0.029 | 0.397 ± 0.029 | 0.413 ± 0.03 | 0.451 ± 0.031
Cc1ccccc1 [toluene] + O=S(=O)([N-]S(=O)(=O)C(F)(F)F)C(F)(F)F.O=S(=O)([N-]S(=O)(=O)C(F)(F)F)C(F)(F)F.c1ccc2cc(C[N+]3(CCCCCCCCC[N+]4(Cc5ccc6ccccc6c5)CCCC4)CCCC3)ccc2c1 | 0.714 ± 0.035 | 0.721 ± 0.035 | 0.723 ± 0.036 | 0.727 ± 0.036
Cc1ccccc1C [1,2-dimethylbenzene] + O=S(=O)([N-]S(=O)(=O)C(F)(F)F)C(F)(F)F.O=S(=O)([N-]S(=O)(=O)C(F)(F)F)C(F)(F)F.c1ccc2cc(C[N+]3(CCCCCCCCC[N+]4(Cc5ccc6ccccc6c5)CCCC4)CCCC3)ccc2c1 | 0.84 ± 0.039 | 0.852 ± 0.039 | 0.864 ± 0.04 | 0.894 ± 0.041
CC(C)O [propan-2-ol] + O=S(=O)([N-]S(=O)(=O)C(F)(F)F)C(F)(F)F.O=S(=O)([N-]S(=O)(=O)C(F)(F)F)C(F)(F)F.c1ccc2cc(C[N+]3(CCCCCCCCC[N+]4(Cc5ccc6ccccc6c5)CCCC4)CCCC3)ccc2c1 | 1.21 ± 0.061 | 1.09 ± 0.051 | 1.05 ± 0.048 | 0.992 ± 0.045
ClC(Cl)(Cl)Cl [tetrachloromethane] + O=S(=O)([N-]S(=O)(=O)C(F)(F)F)C(F)(F)F.O=S(=O)([N-]S(=O)(=O)C(F)(F)F)C(F)(F)F.c1ccc2cc(C[N+]3(CCCCCCCCC[N+]4(Cc5ccc6ccccc6c5)CCCC4)CCCC3)ccc2c1 | 1.45 ± 0.07 | 1.47 ± 0.071 | 1.51 ± 0.073 | 1.52 ± 0.074
c1ccncc1 [pyridine] + O=S(=O)([N-]S(=O)(=O)C(F)(F)F)C(F)(F)F.O=S(=O)([N-]S(=O)(=O)C(F)(F)F)C(F)(F)F.c1ccc2cc(C[N+]3(CCCCCCCCC[N+]4(Cc5ccc6ccccc6c5)CCCC4)CCCC3)ccc2c1 | 0.263 ± 0.028 | 0.266 ± 0.028 | 0.27 ± 0.028 | 0.287 ± 0.028
CC(=O)O [acetic acid] + O=S(=O)([N-]S(=O)(=O)C(F)(F)F)C(F)(F)F.O=S(=O)([N-]S(=O)(=O)C(F)(F)F)C(F)(F)F.c1ccc2cc(C[N+]3(CCCCCCCCC[N+]4(Cc5ccc6ccccc6c5)CCCC4)CCCC3)ccc2c1 | 0.824 ± 0.04 | 0.767 ± 0.038 | 0.746 ± 0.036 | 0.74 ± 0.036
Cc1cccc(C)c1 [1,3-dimethylbenzene] + O=S(=O)([N-]S(=O)(=O)C(F)(F)F)C(F)(F)F.O=S(=O)([N-]S(=O)(=O)C(F)(F)F)C(F)(F)F.c1ccc2cc(C[N+]3(CCCCCCCCC[N+]4(Cc5ccc6ccccc6c5)CCCC4)CCCC3)ccc2c1 | 0.857 ± 0.042 | 0.924 ± 0.042 | 0.941 ± 0.042 | 0.996 ± 0.045
CCCC(C)=O [pentan-2-one] + O=S(=O)([N-]S(=O)(=O)C(F)(F)F)C(F)(F)F.O=S(=O)([N-]S(=O)(=O)C(F)(F)F)C(F)(F)F.c1ccc2cc(C[N+]3(CCCCCCCCC[N+]4(Cc5ccc6ccccc6c5)CCCC4)CCCC3)ccc2c1 | 0.432 ± 0.029 | 0.437 ± 0.029 | 0.444 ± 0.03 | 0.448 ± 0.03
CCCCCCC [heptane] + O=S(=O)([N-]S(=O)(=O)C(F)(F)F)C(F)(F)F.O=S(=O)([N-]S(=O)(=O)C(F)(F)F)C(F)(F)F.c1ccc2cc(C[N+]3(CCCCCCCCC[N+]4(Cc5ccc6ccccc6c5)CCCC4)CCCC3)ccc2c1 | 6.72 ± 0.38 | 5.97 ± 0.33 | 5.44 ± 0.31 | 4.65 ± 0.29
O=Cc1ccccc1 [benzaldehyde] + O=S(=O)([N-]S(=O)(=O)C(F)(F)F)C(F)(F)F.O=S(=O)([N-]S(=O)(=O)C(F)(F)F)C(F)(F)F.c1ccc2cc(C[N+]3(CCCCCCCCC[N+]4(Cc5ccc6ccccc6c5)CCCC4)CCCC3)ccc2c1 | 0.997 ± 0.044 | 0.997 ± 0.044 | 0.998 ± 0.044 | 0.999 ± 0.044
O=C1CCCCC1 [cyclohexanone] + O=S(=O)([N-]S(=O)(=O)C(F)(F)F)C(F)(F)F.O=S(=O)([N-]S(=O)(=O)C(F)(F)F)C(F)(F)F.c1ccc2cc(C[N+]3(CCCCCCCCC[N+]4(Cc5ccc6ccccc6c5)CCCC4)CCCC3)ccc2c1 | 0.998 ± 0.044 | 0.998 ± 0.044 | 0.999 ± 0.044 | 1 ± 0.044
CCOC(C)=O [ethyl acetate] + O=S(=O)([N-]S(=O)(=O)C(F)(F)F)C(F)(F)F.O=S(=O)([N-]S(=O)(=O)C(F)(F)F)C(F)(F)F.c1ccc2cc(C[N+]3(CCCCCCCCC[N+]4(Cc5ccc6ccccc6c5)CCCC4)CCCC3)ccc2c1 | 0.541 ± 0.032 | 0.565 ± 0.032 | 0.601 ± 0.033 | 0.628 ± 0.034
CCCC=O [butanal] + O=S(=O)([N-]S(=O)(=O)C(F)(F)F)C(F)(F)F.O=S(=O)([N-]S(=O)(=O)C(F)(F)F)C(F)(F)F.c1ccc2cc(C[N+]3(CCCCCCCCC[N+]4(Cc5ccc6ccccc6c5)CCCC4)CCCC3)ccc2c1 | 0.448 ± 0.03 | 0.464 ± 0.03 | 0.487 ± 0.03 | 0.491 ± 0.03
CCN(CC)CC [triethylamine] + O=S(=O)([N-]S(=O)(=O)C(F)(F)F)C(F)(F)F.O=S(=O)([N-]S(=O)(=O)C(F)(F)F)C(F)(F)F.c1ccc2cc(C[N+]3(CCCCCCCCC[N+]4(Cc5ccc6ccccc6c5)CCCC4)CCCC3)ccc2c1 | 0.762 ± 0.098 | 1.22 ± 0.081 | 1.35 ± 0.068 | 1.45 ± 0.072
